Laboratory results: US8142760B2, “Vaccination for Lawsonia intracellularis” (priority 2008, dated 2012)

Test system: Lawsonia intracellularis
Test: Fecal PCR for L. intracellularis in pigs after controlled exposure
Format: in vivo
Details: day 28, after 14 days of MECADOX 50 g/ton in feed started 14 days post inoculation
From the text: Four groups of pigs totaling 1409 pigs, between 8 and 10 weeks of age and sourced from a single nursery site, were moved to a finishing barn containing four separate rooms. The barn was filled over four consecutive weeks, filling one room per week. Each group of approximately 350 pigs was weighed as a group before placement into a barn room. The four rooms were alternately assigned to two treatment groups, inoculated (T1) and non-inoculated (T2). Sixteen animals per room were randomly selected and individually identified with ear tags.
On day 0, T1 pigs received inoculum of mucosal homogenate from PE-diseased intestine. Samples of inoculum were submitted to a diagnostic lab for quantification of L. intracellularis organisms before administration. The inoculum was delivered to each pen through the watering system and calibrated to deliver an average dose of 10^5±10 L. intracellularis organisms per pig over a 4-6 hour period. T2 pigs received no inoculum.
All pigs received MECADOX (carbadox) (50 g/ton) for at least 14 days in their nursery diets and up until day −3. Non-medicated feed was fed days −3 to 14 (exposure period) to both treatment groups. MECADOX (carbadox) 50 grams/ton medicated feed was fed to all pigs on days 14 to 28. From day 28 to end of study, all pigs received non-medicated feed. […]

In the case of COC(=O)N/N=C/c1c[n+]([O-])c2ccccc2[n+]1[O-] [MECADOX (carbadox), carbadox], the “sampled, infected pigs negative by fecal PCR for L. intracellularis” value is reported as 100%.
